Laboratory results from ChEMBL document CHEMBL1156847, “Structure-based design of a thiazolidinedione which targets the mitochondrial protein mitoNEET” (Bioorg Med Chem Lett, 2010).

Assays:
[1] = molecular target: T1, CDGSH iron-sulfur domain-containing protein 1 (Rattus norvegicus, UniProt B0K020); test: Displacement of [3H]rosiglitazone from rat liver mitochondrial mitoNEET by scintillation counting
T1 sequence (B0K020 whole entry): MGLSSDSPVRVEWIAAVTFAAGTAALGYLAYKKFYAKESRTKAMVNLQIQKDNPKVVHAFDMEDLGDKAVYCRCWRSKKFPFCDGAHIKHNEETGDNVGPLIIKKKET

SH-SY5Y [2] = test: Neuroprotective activity against rotenone-induced cell death in human SH-SY5Y assessed as reduction in LDH release pretreated 1 hrs before rotenone challenge measured after 24 hrs relative to control; type: functional; parameters: scale not given: the % may be the effect or the level left
[3] = Inhibition of respiration in Sprague-Dawley rat mitochondria assessed as reduction in respiratory control rate; type: functional
SH-SY5Y [4] = test: Neuroprotective activity against rotenone-induced cell death in human SH-SY5Y assessed as reduction in LDH release pretreated 1 hrs before rotenone challenge measured after 24 hrs; type: functional, cell-based
Rattus norvegicus = organism: Rattus norvegicus; test: Reduction in state 3 respiration in Sprague-Dawley rat mitochondria; type: functional; parameters: scale not given: the % may be the effect or the level left

Row | SMILES | IC50 [1] | Activity (SH-SY5Y [2]) | IC50 [3] | Activity (SH-SY5Y [4]) | Activity (Rattus norvegicus)
1 | CCc1ccc(CCOc2ccc(CC3SC(=O)NC3=O)cc2)nc1 (configuration not stated) [PIOGLITAZONE] | 1000 nM |  |  |  | 
2 | CN(CCOc1ccc(CC2SC(=O)NC2=O)cc1)c1ccccn1 (configuration not stated) [ROSIGLITAZONE] | 1100 nM |  |  |  | 
3 | CC(C)(C)c1cc(CC2SC(=O)N=C2O)cc(C(C)(C)C)c1O (configuration not stated) | 900 nM | 40% | 2400 nM | Dose-dependent effect | 45%
